Measured values reported in US8563254B2, “Biomarkers of tumor pharmacodynamic response” (Novartis AG, priority 2009, dated 2013).

Legend:
Type in all cases: cell-based, human
[1] = system: A375 cells; experiment: Quantitative RT-PCR of IL-8 mRNA, A375; details: A375, 0.3 μM, 16 hr
Description: (§1) Total cellular RNA was extracted from the GTL-16 and A375 cell lines using RNeasy mini kit (Qiagen, Inc., Valencia, Calif., USA). Total RNA quantitation was carried out using a RiboGreen assay (Invitrogen Corporation, Carlsbad, Calif., USA). 1 μg of total RNA was reverse transcribed using AMV reverse transcriptase (Reverse Transcription Kit, Promega U.S., Madison, Wis., USA). A 20 μl reaction cocktail was prepared as follows; 1 μg total RNA in 10 μl of RNase, DNase-free H2O, 4 μl of 25 mM MgCl2, 2 μl of 10× reverse transcriptase buffer, 2 μl of 10 mM dNTP's, 1 μl of 500 μg ml^−1 random hexamers, 1.5 μl of 10 μl ml^−1, and 40 U μl^−1 0.5 μl of recombinant RNase Inhibitor. Real time PCR was performed using a 7900HT fast real-time PCR system (Applied Biosystems, Foster City, Calif., USA) using the Power SYBR Green PCR master mix (Applied Biosystems). The primers for IL-8 and GAPDH were: IL-8 sense: 5′-[…]-3′ (SEQ ID NO:3) and IL-8 antisense:
(§2) 5′-[…]-3′ (SEQ ID NO:4); and GAPDH sense:
(§3) 5′-[…]-3′ (SEQ ID NO:5), and GAPDH antisense;
(§4) 5′-[…]-3′. (SEQ ID NO:6) The amplification process involved an initial 5 min denaturing step at 95° C. This was followed by annealing reactions for both IL-8 and GAPDH, of 45 s at 95° C. with 230 s at 68° C. for 34 cycles and 1 min at 95° C. with 1 min at 60° C. and 1 min 72° C. for 30 cycles, respectively. The final extension was 10 min at 72° C. […]

[2] = system: GTL-16 cells; experiment: Quantitative RT-PCR of IL-8 mRNA, GTL-16; details: GTL-16, 0.3 μM, 16 hr, treated versus untreated
Description: as §1, §2, §3, §4

[3] = system: A375 cells; experiment: Western blot of total protein lysates, A375; details: A375, 0.3 μM, 16 hr and 24 hr
Description: (§5) Total protein lysates were prepared from the GTL-16 and A375 cells with RIPA lysis buffer (Upstate, Millipore Corporation, Charlottesville, Va., USA). Cells were washed with PBS and 500 ul of ice-cold RIPA buffer, containing protease inhibitor cocktail tablet (Roche Diagnostic GmbH, Mannheim, Germany) and phosphatase inhibitors (Sigma-Aldrich, Inc., St. Louis, Mo., USA), was added to each plate on ice. After 15 min the cells were scrapped from the plate surface and spun at 16000 RPM for 10 min at 4° C. The supernatant was collected and frozen at −80° C. Nuclear protein fractions were prepared by the NE-PER nuclear and cytoplasmic extraction kit (Pierce Biotechnology, Rockford, Ill., USA). Proteins were quantified by bicinchoninic acid assay (Pierce Biotechnology, Rockford, Ill., USA) for Western blotting. Primary antibodies specific for NFκB p65, cREL, p-ERK1/2, p-c-jun, ERK1 and Jun were purchased from Santa Cruz Biotechnology (Santa Cruz Biotechnology, Inc., Santa Cruz, Calif., USA) with the exception of Hsp70 and TBP (nuclear loading control), which were obtained from StressGen (StressGen, Assay Designs, Inc., Aim Arbor, Mich., USA) and Abcam (Abcam Inc., Cambridge, Mass., USA), respectively. 4-12% Bis-Tris SDS-PAGE, denaturing, non-reducing gels were loaded with 30 μg of total protein, a SeeBlue2Plus pre-stained protein standard and MES SDS running buffer were utilized for the electrophoretic separation in a XCell SureLock™ Mini-Cell (Invitrogen Corporation, Inc., Carlsbad, Calif., USA). An iBlot™ gel transfer PVDF stack with iBlot™ gel transfer system (Invitrogen) was used. An Odyssey Infrared Imaging System was used to detect the immunocomplex (Li-COR Biotechnologies, Inc., Lincoln, Nebr., USA). Li-COR blocking buffer was used to limit cross-reactivity. Membranes were incubated at 4° C. overnight in the primary antibody diluted in blocking buffer, followed by 1 hr room temperature incubation with a secondary IgG antibody (Li-COR IR dye, Li-COR).

[4] = system: GTL-16 cells; experiment: IL-8 ELISA of GTL-16 culture supernatants
Description: A malignant melanoma cell line A375 (American Type Culture Collection, Manassas, Va., USA) and gastric cancer cell line, GTL-16 (Prof Silvia Giordano, Institute for Cancer Research and Treatment, Turin, Italy) were cultured in RPMI 1640 supplemented with 10% FBS and 1% penicillin-streptomycin at 37° C. in 5% CO2 (GIBCO reagents, Invitrogen Corporation, Carlsbad, Calif., USA). Cell numbers were determined by ViCell™ XR Cell Viability Analyzer 2.03 (Beckman Coulter, Inc., Fullerton, Calif., USA). Cells were seeded in poly-D-lysine coated plates (BIOCOAT Cell Environments, Becton Dickinson Biosciences, San Jose, Calif., USA).
Human IL-8 levels in cell culture supernatants from GTL-16 and A375 cells were measured by a sandwich enzyme-linked immunosorbent assay (R&D Systems, Inc., Minneapolis, Minn., USA). Cell culture supernatants were collected from DMSO and NVP-AUY922 treated cells 16, 24, 48 and 72 hr post-treatment and stored at −20° C.
To better characterize the relationship between Hsp90 inhibitor treatment and effects on IL-8 production, GTL-16 and A375 cells were washed and treated for 24 hr with fresh medium containing various concentrations of NVP-AUY922. For this length of treatment time, maximal inhibition of IL-8 accumulation appears to be reached at 0.3 μM as measured by enzyme-linked immunosorbent assay; this equates to 80% and 60% reductions in GTL-16 and A375 cultures, respectively (FIGS. 2A, B).

[5] = system: GTL-16 cells; experiment: Western blot of total protein lysates, GTL-16; details: GTL-16, 0.3 μM, 16 hr and 24 hr
Description: as §5

## CCNC(=O)c1noc(-c2cc(C(C)C)c(O)cc2O)c1-c1ccc(CN2CCOCC2)cc1 [NVP-AUY922, 5-(2,4-Dihydroxy-5-isopropyl-phenyl)-4-(4-morhpolin-4-ylmethyl-phenyl)-isoxazole-3-carboxylic acid ethylamide]
[1]
  IL-8 mRNA levels lower in treated versus untreated cells: 95%
[2]
  decrease in IL-8 mRNA expression: 85%
[3]
  Hsp70 induction: induction was observed
  levels of phospho-ERK1/2 and phospho-c-Jun: significantly diminished
  total ERK and c-Jun levels: unaffected
  total cellular levels of NFκB p65 and c-REL: essentially unchanged
[4]; GTL-16, 0.3 μM
  time within which IL-8 production dramatically declines: ≤ 16 h
[4]; GTL-16, 24 hr treatment
  concentration at which maximal inhibition of IL-8 accumulation is reached: 0.3 µM
[4]; Homo sapiens, GTL-16, 0.3 μM, 24 hr, ELISA, read-out: reduction of IL-8 accumulation (maximal inhibition)
  inhibition at 0.3 µM: 80%
[5]
  Hsp70 induction: induction was observed
  levels of phospho-ERK1/2 and phospho-c-Jun: significantly diminished
  total ERK and c-Jun levels: unaffected
  total cellular levels of NFκB p65 and c-REL: essentially unchanged
